≈ marks a conversion by molar mass, not a printed value.
Assays:
[1] = test system: Plasmodium falciparum Strain W2; experiment: In vitro antiplasmodial activity (IC50), strain W2; format: cell-based
Method: (§1) The basic extracts obtained as in Example 1, from both the root and stem bark with a yield of 1.9% were used to carry out the in vitro antiplasmodial activity study on known Plasmodium falciparum strains.
(§2) Plasmodium falciparum strains D6 and W2 were used throughout this investigation. Laboratory isolates of P. falciparum were grown under controlled conditions in culture medium containing leukocyte-free red blood cells (RBCs) at 5% hematocrit (Tager and Jensen, 1976). Briefly, parasites were allowed to infect RBCs in a media consisting of RPMI 1640 plus 25 mM Hepes, 0.25 glucose, 0.2% sodium bicarbonate, 0.5% Albumax II, and 50 mg/liter hypoxanthine and grown in 5% CO2 at 37° C. […]
(§3) Assessment of parasite development and morphology. Parasite development and morphology were evaluated by microscopic examination of Giemsa-stained thin blood smears at 24, 48, and 72 hour intervals in the presence of increasing doses of the alkaloids dissolved as a stock solution in 10% (v/v) dimethylsulphoxide (DMSO) in RPMI 1640. […] Smears from drug-free cultures were always used as controls Parasitemia was measured by counting blood cells and expressed as percentage of total parasitized erythrocytes (Table 3).

[2] = test system: Plasmodium falciparum Strain D6; experiment: In vitro antiplasmodial activity (IC50), strain D6; format: cell-based
Method: as §1, §2, §3

[3] = test system: Leishmania infantum promastigotes; experiment: In vitro leishmanicidal activity, MTT assay; format: cell-based; conditions: for Fold Increase (IC50), voacamine with respect to the basic extract: ratio of IC50
Method: Preparation of the anti-leishmanial compositions: The total plant extract was dissolved in DMSO as a 50 mg/mL stock. The purified alkaloid, voacamine, was dissolved in 50% DMSO at a 3 mg/mL stock.
In vitro drug testing. […] 10 μL of 3-(4,5-dimethylthiazol-2-yl)-2,5-diphenyl-2H-tetrazol bromide (MTT, Sigma, 5 mg/mL in PBS) were added to each well and plates were incubated for an additional period of 5 hours. Only viable cells are able to reduce the MTT compound to produce water-insoluble formazan crystals of a purple color. These crystals were dissolved by adding 100 μL of SDS 20% and incubating overnight at 37° C. The absorbance was subsequently read at 540 nanometers using a microplate reader (Beckman Biomek 2000). Cell survival was determined by dividing the absorbance of the compound at a given concentration by the absorbance of control cells grown in the absence of drug. The 50% inhibitory concentration (IC50) values were graphically determined after plotting the percentage of growth as a function of drug concentration. All experiments were performed in duplicate.

[4] = Countercurrent distribution, KrKb (partition coefficient x dissociation constant); format: physicochemical
Method: The diverse tertiary alkaloids contained in the basic extract of Example 1, were separated by countercurrent distribution, with dichloromethane as the stationary phase and an aqueous buffer with an incrementally decreasing pH (mobile phase). The alkaloids were recovered from the aqueous phase by extraction with dichloromethane.
The equipment used was a Craig type Post apparatus made up of 200 glass tubes (with 10 ml volumes for the lower phase and 10 ml volumes for the upper phase).

Which IC50 [1] does the source give for `CC=C1CN(C)C2Cc3c([nH]c4ccccc34)C(c3cc4[nH]c5c(c4cc3OC)CCN3CC4CC(CC)C3C5(C(=O)OC)C4)CC1C2C(=O)OC` (stereo not drawn) [Ex. 2, voacamine] here?
Its IC50 is 0.29 µg/mL (≈ 0.411 µM).

What about the IC50 [2] of the same compound?
Its IC50 is 0.238 µg/mL (≈ 0.338 µM).

And the IC90 ([3]; Leishmania infantum, 72 h)?
The IC90 was 7 µg/mL (≈ 9.93 µM).

What about the IC50 ([3]; Leishmania infantum, 72 h, read-out: IC50 (concentration required to kill 50% of the parasites)) of the same compound?
The IC50 was 3.3 µg/mL (≈ 4.68 µM).

What about the “concentration producing complete cellular destruction” value ([3]; before 72 hours) of the same compound?
Its value is 10 µg/mL.

What about the “Fold Increase (IC50), voacamine with respect to the basic extract” value ([3]; listed as Voacamine) of the same compound?
The value was 20.7 fold.

What about the “Fold Increase (IC50), voacamine with respect to the basic extract” value ([3]; listed as voacamine) of the same compound?
The value was 20 fold.

What about the “Fold Increase (IC90), voacamine with respect to the basic extract” value ([3]; ratio of IC90) of the same compound?
The value was 15.7 fold.

Which “KrKb (Kr partition coefficient aqueous phase/organic phase, Kb dissociation constant)” value [4] does the source give for N-demethylvoacamine here?
Its value is 3.5×10^−11.

Which “KrKb (Kr partition coefficient aqueous phase/organic phase, Kb dissociation constant)” value [4] does the source give for `CC=C1CN(C)C2Cc3c([nH]c4ccccc34)C(=O)CC1C2CO` (stereo not drawn) [16-epi-affinine] here?
Its value is 2.5×10^−9.

Which “KrKb (Kr partition coefficient aqueous phase/organic phase, Kb dissociation constant)” value [4] does the source give for `C/C=C1/CN2[C@H]3C[C@@H]1[C@@H](CO)[C@@H]2Cc1c3n(C)c2ccccc12` [affinisine] here?
The value was 7×10^−10.

Which “KrKb (Kr partition coefficient aqueous phase/organic phase, Kb dissociation constant)” value [4] does the source give for `C/C=C1/CN2[C@H]3Cc4c(n(C)c5ccccc45)[C@@H]2C[C@@H]1[C@@]3(CO)C(=O)OC` [voachalotine] here?
Its value is 2×10^−11.

— patent US20070232588A1, “Anti-parasitic and/or anti-viral and/or anti-microbial compositions” (priority 2004, published 2007)
